This is an account of results in patent US8518973B2, “Compounds having 4-pyridylalkylthio group as a substituent” (Santen Pharmaceutical Co., Ltd., priority 2003, dated 2013).

The inhibition is the percentage by which the read-out fell short of the control.

The test system of assay [1] is rat choroidal neovascularization model. As to the kind of experiment: Neovascularization incidence test using laser-induced rat choroidal neovascularization model. Type of assay: in vivo. As to conditions: po, 168 h; Brown Norway rat, krypton laser photocoagulation, 30 mg/kg/day orally once a day for seven days, ratio to vehicle administration group, average of three to four individuals and six to eight eyes; read-out: Ratio of neovascularization incidence rate (% of Control). On the procedure: Neovascularization incidence tests of the present compounds were carried out using a rat choroidal neovascularization model, which is one of widely-used methods of evaluating in vivo choroidal neovascularization inhibitory effects of drugs.
As one of widely-used methods of evaluating choroidal neovascularization inhibitory effects of drugs, a neovascularization incidence test using rat choroidal neovascularization models was reported in Graefe's Arch. Cli. Exp. Ophthalmol., 235, 313-319(1997). According to the method described in the above-mentioned literature, neovascularization incidence tests of the present compounds were carried out, ratios of neovascularization incidence rates of present compounds administration groups were calculated to a neovascularization incidence rate of vehicle administration group (control group), and choroidal neovascularization inhibitory effects of the present compounds were evaluated using the obtained ratios as indexes.
A 1% aqueous methyl cellulose solution was added to each test compound to suspend it thereby to prepare a 6 mg/10 ml test compound suspension.
• 1) A 7:1 mixed solution (1 ml/kg) of a 5% ketamine hydrochloride injection and a 2% xylazine hydrochloride injection was administered intramuscularly to rats (Brown Norway, male, eight weeks old, weight: 200 to 250 g) to anesthetize them systemically. • 2) A tropicamide-phenylephrine hydrochloride ophthalmic solution (trade name: Mydrin-P) was instilled into eyes to cause mydriasis, and then photocoagulation was performed in a Bruch's membrane of each rat using a krypton laser photocoagulation apparatus. The laser irradiation was carried out at eight spots per eye sparsely avoiding thick retinal vessels in a posterior section of ocular fundus and focusing on the retinal deep site. Photocoagulation conditions were adjusted to 100 μm of spot size, […] of output and 0.1 sec. of coagulation time. • 3) After the photocoagulation, the ocular fundus was photographed to confirm photocoagulation (laser irradiation) sites. […] Method of Evaluation • 1) Seven days after the photocoagulation, 0.1 ml of a 10% aqueous fluorescein solution was injected into a tail vein of the rat, and fluorescein fundus photography was performed. • 2) Next, in the fluorescein fundus photography, a spot where fluorescence leak was not observed was judged as negative, and a spot where fluorescence leak was observed was judged as positive. Photocoagulation sites where a little fluorescence leak was observed were judged as positive when two sites are present. • 3) Neovascularization incidence rates were calculated according to the calculation equation 1. Ratios of the neovascularization incidence rates of the test compound administration groups to that of the vehicle administration group were calculated according to the calculation equation 2 from neovascularization incidence rates of respective administration groups.
The values are the average of three to four individuals and six to eight eyes.

Assay [2] has as its system VEGF-induced HUVEC growth. Nature of the assay: VEGF-induced HUVEC growth reaction evaluation system (cell growth inhibitory action test). To be noted: Homo sapiens, 72 h, 20 μg/ml test compound solution added 5 μl per well (100 μl), VEGF solution 400 ng/ml 5 μl per well, three days, absorbance at 450 nm, read-out: Cell growth inhibition rate (%). Format: cell-based. On the procedure:
Cell growth inhibitory action tests were carried out using a VEGF-induced HUVEC growth reaction evaluation system (HUVEC stands for human umbilical vein endothelial cells), which is one of widely-used methods of evaluating in vitro angiogenesis inhibitory effects of drugs.
As one of widely-used methods of evaluating angiogenesis inhibitory effects of drugs, a cell growth inhibitory action test using a VEGF-induced HUVEC growth reaction evaluation system was reported in Cancer Res., 59, 99-106(1999). According to the method described in the above-mentioned literature, cell growth inhibitory action tests of the present compounds were carried out, their cell growth inhibition rates were calculated, and angiogenesis inhibitory effects of the present compounds were evaluated using the obtained rates as indexes.
Each test compound was dissolved in dimethyl sulfoxide (hereinafter abbreviated as “DMSO”), and the obtained solution was diluted with commercially available phosphoric acid buffer solution (hereinafter abbreviated as “PBS”) to prepare a 20 μg/ml test compound solution.
HUVEC was suspended in a 0.5% fetal bovine serum (hereinafter abbreviated as “FBS”)-containing F12K medium to prepare a 2×10^4 cells/ml HUVEC suspension.
VEGF was dissolved in 0.1% bovine serum albumin-containing PBS, and the obtained solution was diluted with the 0.5% FBS-containing F12K medium to prepare a 400 ng/ml VEGF solution.
• 1) The HUVEC suspension was inoculated in each amount of 100 μl into each well of a 96-well plate coated with I type collagen (2×10^3 cells per well). • 2) One day after inoculation, the test compound solution was added in an amount of 5 μl per well. • 3) One hour after adding the test compound solution, the VEGF solution was added in an amount of 5 μl per well. • 4) Three days after adding the VEGF solution, cell counting kit-8(Dojin Chemical Co., Ltd.) was added in an amount of 10 μl per well. • 5) After three hours, the above-mentioned plate was attached to an absorptiometer (multi label counter ARVO), and absorbance at 450 nm of each well suspension (hereinafter referred to as “test compound suspension”) was measured. • 6) A test was carried out in the same manner as in 1) to 5) except that 1.0% DMSO was used instead of the test compound solution.
Incubation was carried out under conditions of 37° C., 5% carbon dioxide and 95% air in an incubator throughout the above-mentioned test steps.
Cell growth inhibition rates, which are indexes of angiogenesis inhibitory effects, were calculated by the following calculation equation.

Assay [3] deals with B16 cells. Nature of the assay: Tumor growth inhibitory action test using mouse cancer model (B16 cells). Type of assay: in vivo. As to conditions: po, 240 h; C57BL/6 mouse, B16 cells intradermally, 100 mg/kg/day orally once a day, ten days after injection, average of nine mice; read-out: Tumor tissue weight inhibition rate (%). How it is done: Tumor proliferation inhibitory action tests of the present compounds were carried out using a mouse cancer model, which is one of widely-used methods of evaluating in vivo anticancer effects of drugs.
As one of widely-used methods of evaluating anticancer effects of drugs, a tumor growth inhibitory action test using mouse cancer models was reported in Cancer Res., 59, 5209-5218(1999). According to the method described in the above-mentioned literature, tumor growth inhibitory action tests of the present compounds were carried out, their tumor tissue weight inhibition rates were calculated, and anticancer effects of the present compounds were evaluated using the obtained rates as indexes.
A 1% aqueous methyl cellulose solution was added to each test compound to suspend it with a sonicator thereby to prepare a 10 mg/ml test compound suspension.
Physiological saline was added to B16 cells to prepare a 3.3×10^7 cells/ml B16 cell suspension.
Calculation of Tumor Tissue Weight Inhibition Rate
Tumor tissue weight inhibition rates (the average of nine mice per group), which are indexes of anticancer effects were calculated, from the following calculation equation.

In the case of `O=C(Nc1ccc2ncccc2c1)c1cccnc1SCc1ccncc1` [1-21, 2-(4-Pyridylmethylthio)-N-(6-quinolyl)pyridine-3-carboxamide], in assay [1], the response vs control in vivo at 30 mg/kg/day worked out at 15%. In addition, the inhibition at 20 µg/mL (stock) in assay [2] was found to be 99%. Further, in assay [3], the inhibition in vivo at 100 mg/kg/day was 65%.
The matching figures for `O=C(Nc1ccc2cn[nH]c2c1)c1cccnc1SCc1ccncc1` [1-296, N-(Indazol-6-yl)-2-(4-pyridylmethylthio)pyridine-3-carboxamide]: 24%, 100% and 71%.
Take `Cc1cc(C)cc(NC(=O)c2cccnc2SCc2ccnc(Br)c2)c1` [1-230, 2-(2-Bromopyridin-4-ylmethylthio)-N-(3,5-dimethylphenyl)pyridine-3-carboxamide]: in assay [2], the inhibition at 20 µg/mL (stock) came to 100%. Also, in assay [3], the inhibition in vivo at 100 mg/kg/day amounted to 66%.
The matching figures for `CC(C)(C)c1ccc(NC(=O)c2cccnc2SCc2ccncc2)cc1` [1-51, N-(4-tert-Butylphenyl)-2-(4-pyridylmethylthio)pyridine-3-carboxamide]: 98% and 59%.
Regarding `O=C(Nc1ccc(OC(F)(F)F)c(Cl)c1)c1cccnc1SCc1cc[n+]([O-])cc1` [4-11, N-(3-Chloro-4-trifluoromethoxyphenyl)-2-(1-oxopyridin-4-ylmethylthio)-pyridine-3-carboxamide], the inhibition at 20 µg/mL (stock) in assay [2] turned out to be 100%. In assay [3], the inhibition in vivo at 100 mg/kg/day was 62%.
Regarding `O=C(Nc1ccc(OC(F)(F)F)cc1)c1cccnc1SCc1cc[n+]([O-])cc1` [4-9, 2-(1-Oxopyridin-4-ylmethylthio)-N-(4-trifluoromethoxyphenyl)pyridine-3-carboxamide], in assay [2], the inhibition at 20 µg/mL (stock) was determined as 100%. In addition, the inhibition in vivo at 100 mg/kg/day in assay [3] is 77%.
For `O=C(Nc1ccc2c(c1)CCC2)c1cccnc1SCc1ccncc1` [1-136, N-(5-Indanyl)-2-(4-pyridylmethylthio)pyridine-3-carboxamide], in assay [1], the response vs control in vivo at 30 mg/kg/day was 38%. Also, the inhibition at 20 µg/mL (stock) in assay [2] came out at 100%. Also, the inhibition in vivo at 100 mg/kg/day in assay [3] turned out to be 53%.
Taken in the same sequence, the figures for `O=C(Nc1ccc2[nH]ncc2c1)c1cccnc1SCc1ccncc1` [1-23, N-(Indazol-5-yl)-2-(4-pyridylmethylthio)pyridine-3-carboxamide] were 26%, 100% and 57%.
Turning to `Cc1cc(NC(=O)c2ccccc2SCc2ccncc2)ccc1Cl` [1-99, N-(4-Chloro-3-methylphenyl)-2-(4-pyridylmethylthio)benzamide], the inhibition at 20 µg/mL (stock) in assay [2] came to 100%. Besides, the inhibition in vivo at 100 mg/kg/day in assay [3] worked out at 64%.
Taken in the same sequence, the figures for `O=C(Nc1ccc2c(c1)CCC2)c1cccnc1SCc1cc[n+]([O-])cc1` [4-8, N-(5-Indanyl)-2-(1-oxopyridin-4-ylmethylthio)pyridine-3-carboxamide] were 98% and 80%.
Turning to `CSc1cc(CSc2ncccc2C(=O)Nc2ccc(Cl)cc2)ccn1` [1-232, N-(4-Chlorophenyl)-2-(2-methylthiopyridin-4-ylmethylthio)pyridine-3-carboxamide], in assay [2], the inhibition at 20 µg/mL (stock) worked out at 75%.
`CC(C)c1cccc(NC(=O)c2ccccc2SCc2ccncc2)c1` [1-92, N-(3-Isopropylphenyl)-2-(4-pyridylmethylthio)benzamide]: the inhibition at 20 µg/mL (stock) in assay [2] stood at 100%.
Same read-out and setting: the result for `O=C(Nc1cc(Cl)cc(Cl)c1)c1cccnc1SCc1ccncc1` [1-84, N-(3,5-Dichlorophenyl)-2-(4-pyridylmethylthio)pyridine-3-carboxamide] reads 100%; that for `O=C(Nc1cnc2ccccc2c1)c1cccnc1SCc1ccncc1` [1-20, 2-(4-Pyridylmethylthio)-N-(3-quinolyl)pyridine-3-carboxamide], 100%; that for `O=C(Nc1ccc(C(F)(F)F)cc1)c1ccsc1SCc1ccncc1` [1-290, 2-(4-Pyridylmethylthio)-N-(4-trifluoromethylphenyl)thiophene-3-carboxamide], 100%.
Same read-out and setting: for `Cc1cc(C)cc(NC(=O)c2cccnc2SCc2ccncc2Cl)c1` [1-228, 2-(3-Chloropyridin-4-ylmethylthio)-N-(3,5-dimethylphenyl)pyridine-3-carboxamide] the value was 100%; for `Cc1ccc(NC(=O)c2cccnc2SCc2ccncc2)cc1Cl` [1-78, N-(3-Chloro-4-methylphenyl)-2-(4-pyridylmethylthio)pyridine-3-carboxamide], 100%.
As for `CCOC(=O)c1cc(CSc2ncccc2C(=O)Nc2cc(C)cc(C)c2)ccn1` [1-241, N-(3,5-dimethylphenyl)-2-(2-ethoxycarbonylpyridin-4-ylmethylthio)pyridine-3-carboxamide], in assay [2], the inhibition at 20 µg/mL (stock) was 96%.
